# Experimental data taken from patent publication US20180296456A1, “Decapeptide-12 Modulation of Sirtuin Gene Expression in Epidermal Keratinocyte Progenitors” (Escape Therapeutics, Inc., priority 2017, published 2018).
# Peptide text beside a SMILES is read from it.
# Experiments:
# SIRT3 = SIRT3 transcription, semi-quantitative RT-PCR in human epidermal progenitors; format: cell-based; details: 72 h
# Protocol: Human neonatal epidermal progenitors (Thermo Fisher Scientific, NY) were seeded in 6-well plates at a density of 2×10^5 cells/well. Each well received 2 ml of Epilife media containing 60 μM calcium chloride (Thermo Fisher Scientific, NY). Plates were incubated in a humidified chamber at 37 degrees Celsius and 5 percent CO2. Twenty-four hours later, cells were treated with various concentrations of oxyresveratrol or decapeptide-12 dissolved in PBS containing 5 percent DMSO. Control wells received vehicle only (5 percent DMSO and PBS). Final concentration of DMSO in each well was 0.05 percent.
# After a 72 hour incubation period, cells were trypsinized and total RNA extracted, using RNeasy kit (Qiagen, Valencia, Calif.) according to the manufacturer's protocol.
# RNA concentration was determined using nanodrop (Thermo fisher scientific, NY). Two μg of total RNA were used to synthesize cDNA using oligo dT primers and TaqMan reverse transcription reagents (Thermo fisher scientific, NY). The reaction was carried out in DNA Engine Peltier Thermal Cycler (Bio-Rad, Hercules, Calif.). The annealing temperature was 25 degrees Celsius for 10 minutes, followed by first strand synthesis at 48 degrees Celsius for 1 hour, and heat inactivation at 95 degrees Celsius for 5 minutes.
# The SIRT1-7 primers (table 1) were designed using Primer3. The semi-quantitative PCR reactions were performed on a DNA Engine Peltier Thermo Cycler (Bio-Rad, Hercules, Calif.). PCR was carried under the following conditions: denaturation at 94 degrees Celsius for 2 minutes and primer extension at 54 degrees Celsius for 30 seconds in 34 cycles for SIRT 1-7 and the housekeeping gene 18S.
# Samples were run and resolved on a 1.5 percent agarose gel containing 0.5 μg/ml of ethidium bromide and imaged using the FluorChem HD2 Imaging System (Protein simple, San Jose, Calif.). Densitometry analysis was carried out using the AlphaEase FC software (Protein simple, San Jose, Calif.). Intensity ratios were calculated as the intensity value for each gene divided by the intensity value of the internal control gene 18S.
# The effect of the decapeptides P4, P4A, P4B, and P4C upon the transcription levels of sirtuins 1-7 was evaluated. Table 4 summarizes transcription levels for all four decapeptides with the corresponding genes, at tested concentrations of: 10, 30, 50, 100, and 300 (all in μM).
# [1] = MTT cell proliferation assay, melanoblasts; format: cell-based, human; details: human, MTT, 72 h, read-out: melanoblast proliferation rate after 72 hours
# Protocol: (§1) Proliferation rates for three human cell lines (epidermal progenitors, melanoblasts, and fibroblasts) were determined using a TACS® MTT Cell Proliferation Kit. Cells were seeded at 2.5×10^4/well in 96-well plates in a humidified atmosphere with 5 percent CO2 at 37 degrees Celsius. Twenty-four hours later, the decapeptides were added to the corresponding wells at varying concentrations and incubated for 72 hours. The remainder of the procedure was performed following the manufacturer's protocol.
# melanoblasts = assay: MTT cell proliferation assay, melanoblasts; format: cell-based, human; details: 100 μM, 72-hour incubation
# Protocol: as §1
# [2] = MTT cell proliferation assay, fibroblasts; format: cell-based, human; details: human, MTT, 72 h, read-out: fibroblast proliferation rate after 72 hours
# Protocol: as §1
# fibroblasts = assay: MTT cell proliferation assay, fibroblasts; format: cell-based, human; details: 100 μM, 72-hour incubation
# Protocol: as §1
# [3] = Trypan blue cell viability, 7 days, epidermal progenitors; format: cell-based; details: human, relative to control, read-out: epidermal progenitor viability after 7 days
# Protocol: The effect of each of the decapeptides upon cell viability was also tested. In particular, cells were incubated with the decapeptide at various concentrations and then counted for viability relative to the control (untreated cells) using trypan blue. Cytotoxicity was measured according to the following formula:
# [1−(# of cells in control−# of live cells in test sample)/# of cells in control]×100 percent.
compound,measurement,setting,value
"CCCCCCCCCCCCCCCC(=O)N[C@@H](Cc1ccc(O)cc1)C(=O)N[C@@H](CCCNC(=N)N)C(=O)N[C@@H](CO)C(=O)N[C@@H](CCCNC(=N)N)C(=O)N[C@@H](CCCCN)C(=O)N[C@@H](Cc1ccc(O)cc1)C(=O)N[C@@H](CO)C(=O)N[C@@H](CO)C(=O)N[C@@H](Cc1c[nH]c2ccccc12)C(=O)N[C@@H](Cc1ccc(O)cc1)C(N)=O [P4A, Palmitoyl-YRSRKYSSWY-amide] (HELM PEPTIDE1{[CCCCCCCCCCCCCCCC(=O)[*:2]].Y.R.S.R.K.Y.S.S.W.Y.[am]}$$$$V2.0)",SIRT3 transcription increase relative to control,SIRT3; 10 μM,25 ± 4%
same,SIRT3 transcription increase relative to control,SIRT3; 30 μM,26 ± 3%
same,SIRT3 transcription increase relative to control,SIRT3; 50 μM,60 ± 4%
same,SIRT3 transcription increase relative to control,SIRT3; 100 μM,152 ± 2%
same,SIRT3 transcription increase relative to control,SIRT3; 300 μM,147 ± 2%
same,"viability at 72 h, 3 µM",[1]; 3 μM,100%
same,"viability at 72 h, 10 µM",[1]; 10 μM,100%
same,"viability at 72 h, 30 µM",[1]; 30 μM,99 ± 1%
same,"viability at 72 h, 50 µM",[1]; 50 μM,98 ± 1%
same,"viability at 72 h, 100 µM",[1]; 100 μM,97 ± 2%
same,"viability at 72 h, 300 µM",[1]; 300 μM,97 ± 2%
same,"viability at 72 h, 500 µM",[1]; 500 μM,96 ± 2%
same,"viability at 72 h, 1000 µM",[1]; 1000 μM,95 ± 2%
same,reduction in the proliferation rate,melanoblasts,3%
same,"viability at 72 h, 3 µM",[2]; 3 μM,100%
same,"viability at 72 h, 10 µM",[2]; 10 μM,99 ± 1%
same,"viability at 72 h, 30 µM",[2]; 30 μM,98 ± 1%
same,"viability at 72 h, 50 µM",[2]; 50 μM,98 ± 1%
same,"viability at 72 h, 100 µM",[2]; 100 μM,97 ± 2%
same,"viability at 72 h, 300 µM",[2]; 300 μM,97 ± 2%
same,"viability at 72 h, 500 µM",[2]; 500 μM,96 ± 2%
same,"viability at 72 h, 1000 µM",[2]; 1000 μM,95 ± 2%
same,reduction in the proliferation rate,fibroblasts,3%
same,"viability at 168 h, 3 µM",[3]; 3 μM,100%
same,"viability at 168 h, 10 µM",[3]; 10 μM,99 ± 1%
same,"viability at 168 h, 30 µM",[3]; 30 μM,98.2 ± 1%
same,"viability at 168 h, 50 µM",[3]; 50 μM,97.5 ± 1%
same,"viability at 168 h, 100 µM",[3]; 100 μM,96.9 ± 2%
same,"viability at 168 h, 300 µM",[3]; 300 μM,95.6 ± 2%
same,"viability at 168 h, 500 µM",[3]; 500 μM,94.3 ± 2%
same,"viability at 168 h, 1000 µM",[3]; 1000 μM,93.6 ± 3%
